# Columns and labels:
# [1] = molecular target: T1, Alpha-1A adrenergic receptor (Homo sapiens, UniProt P35348); assay type: functional, cell-based
# T1 sequence (P35348 whole entry): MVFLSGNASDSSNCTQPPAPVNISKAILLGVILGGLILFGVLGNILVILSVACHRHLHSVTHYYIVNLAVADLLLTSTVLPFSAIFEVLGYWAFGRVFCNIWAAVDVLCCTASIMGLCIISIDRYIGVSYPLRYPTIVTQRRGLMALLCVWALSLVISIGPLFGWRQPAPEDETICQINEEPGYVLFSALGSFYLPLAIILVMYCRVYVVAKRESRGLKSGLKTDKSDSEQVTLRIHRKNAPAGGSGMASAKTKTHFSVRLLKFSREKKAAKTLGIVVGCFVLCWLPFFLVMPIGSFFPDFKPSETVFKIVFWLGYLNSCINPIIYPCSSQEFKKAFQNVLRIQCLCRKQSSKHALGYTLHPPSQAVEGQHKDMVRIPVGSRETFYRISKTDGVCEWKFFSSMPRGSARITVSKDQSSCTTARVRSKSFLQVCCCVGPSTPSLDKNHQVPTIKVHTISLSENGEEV
# [2] = molecular target: Beta-2 adrenergic receptor (Homo sapiens, UniProt P07550)
# Cannabinoid receptor 1 = Cannabinoid receptor 1 (Homo sapiens, UniProt P21554); assay type: functional, cell-based
# D(1A) dopamine receptor [3] = molecular target: T2, D(1A) dopamine receptor (Homo sapiens, UniProt P21728); assay type: functional, cell-based
# D(1A) dopamine receptor [4] = molecular target: T2, D(1A) dopamine receptor
# Histamine H3 receptor [5] = molecular target: T3, Histamine H3 receptor (Homo sapiens, UniProt Q9Y5N1)
# [6] = molecular target: T4, 5-hydroxytryptamine receptor 1A (Homo sapiens, UniProt P08908); assay type: functional, cell-based
# T4 sequence (P08908 whole entry): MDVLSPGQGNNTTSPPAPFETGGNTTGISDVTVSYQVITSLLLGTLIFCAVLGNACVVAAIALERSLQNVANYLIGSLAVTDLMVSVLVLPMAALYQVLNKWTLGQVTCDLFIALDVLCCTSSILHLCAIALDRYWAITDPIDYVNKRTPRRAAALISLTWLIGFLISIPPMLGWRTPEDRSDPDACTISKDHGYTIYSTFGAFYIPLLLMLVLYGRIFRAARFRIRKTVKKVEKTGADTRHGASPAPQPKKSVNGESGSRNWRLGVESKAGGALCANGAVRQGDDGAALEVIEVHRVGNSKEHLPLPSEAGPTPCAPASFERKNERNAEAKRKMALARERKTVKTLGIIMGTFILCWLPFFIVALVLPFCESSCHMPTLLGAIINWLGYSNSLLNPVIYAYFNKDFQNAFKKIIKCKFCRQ
# [7] = molecular target: T4, 5-hydroxytryptamine receptor 1A
# Melanocortin receptor 4 = Melanocortin receptor 4 (Homo sapiens, UniProt P32245)
# [8] = molecular target: cGMP-inhibited 3',5'-cyclic phosphodiesterase 3A (Homo sapiens, UniProt Q14432); assay type: functional
# [9] = molecular target: T5, Prostaglandin G/H synthase 1 (Homo sapiens, UniProt P23219); assay type: functional
# [10] = molecular target: T5, Prostaglandin G/H synthase 1; assay type: functional; remark: listed apart in the source
# [11] = molecular target: Sodium-dependent noradrenaline transporter (Homo sapiens, UniProt P23975)
# [12] = molecular target: Sodium-dependent dopamine transporter (Homo sapiens, UniProt Q01959)
# [13] = molecular target: T1, Alpha-1A adrenergic receptor; assay type: functional, cell-based; remark: listed apart in the source
# Histamine H3 receptor [14] = molecular target: T3, Histamine H3 receptor; remark: listed apart in the source
# [15] = molecular target: T6, Alpha-2A adrenergic receptor (Homo sapiens, UniProt P08913); assay type: functional, cell-based
# T6 sequence (P08913 whole entry): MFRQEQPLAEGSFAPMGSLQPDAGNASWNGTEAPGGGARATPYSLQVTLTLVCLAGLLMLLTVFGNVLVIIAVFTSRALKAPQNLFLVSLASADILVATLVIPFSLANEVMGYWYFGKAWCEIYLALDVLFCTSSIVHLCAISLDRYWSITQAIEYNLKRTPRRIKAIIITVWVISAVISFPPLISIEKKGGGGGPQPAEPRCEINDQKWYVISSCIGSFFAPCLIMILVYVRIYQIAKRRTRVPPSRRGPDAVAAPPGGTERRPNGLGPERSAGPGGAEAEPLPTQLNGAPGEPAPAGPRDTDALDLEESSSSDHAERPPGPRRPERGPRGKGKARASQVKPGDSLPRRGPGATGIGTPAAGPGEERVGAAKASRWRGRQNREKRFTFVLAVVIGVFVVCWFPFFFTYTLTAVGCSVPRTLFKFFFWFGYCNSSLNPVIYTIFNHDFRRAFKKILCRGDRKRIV
# Histamine H1 receptor = Histamine H1 receptor (Homo sapiens, UniProt P35367)
# [16] = molecular target: T7, Muscarinic acetylcholine receptor M2 (Homo sapiens, UniProt P08172)
# T7 sequence (P08172 whole entry): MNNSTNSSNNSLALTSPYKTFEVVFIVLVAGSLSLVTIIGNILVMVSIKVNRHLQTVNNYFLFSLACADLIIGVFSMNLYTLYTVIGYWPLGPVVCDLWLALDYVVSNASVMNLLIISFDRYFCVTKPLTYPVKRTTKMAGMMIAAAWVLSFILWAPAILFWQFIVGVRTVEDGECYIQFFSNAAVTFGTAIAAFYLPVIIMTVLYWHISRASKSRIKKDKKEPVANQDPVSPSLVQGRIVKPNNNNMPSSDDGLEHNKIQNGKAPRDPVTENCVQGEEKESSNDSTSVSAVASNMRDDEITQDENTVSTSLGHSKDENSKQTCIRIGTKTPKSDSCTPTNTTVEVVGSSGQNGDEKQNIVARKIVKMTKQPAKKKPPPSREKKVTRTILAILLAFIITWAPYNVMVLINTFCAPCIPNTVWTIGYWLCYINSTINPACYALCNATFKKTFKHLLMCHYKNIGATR
# Also: assay procedure not described here.
# T3 sequence (Q9Y5N1 whole entry): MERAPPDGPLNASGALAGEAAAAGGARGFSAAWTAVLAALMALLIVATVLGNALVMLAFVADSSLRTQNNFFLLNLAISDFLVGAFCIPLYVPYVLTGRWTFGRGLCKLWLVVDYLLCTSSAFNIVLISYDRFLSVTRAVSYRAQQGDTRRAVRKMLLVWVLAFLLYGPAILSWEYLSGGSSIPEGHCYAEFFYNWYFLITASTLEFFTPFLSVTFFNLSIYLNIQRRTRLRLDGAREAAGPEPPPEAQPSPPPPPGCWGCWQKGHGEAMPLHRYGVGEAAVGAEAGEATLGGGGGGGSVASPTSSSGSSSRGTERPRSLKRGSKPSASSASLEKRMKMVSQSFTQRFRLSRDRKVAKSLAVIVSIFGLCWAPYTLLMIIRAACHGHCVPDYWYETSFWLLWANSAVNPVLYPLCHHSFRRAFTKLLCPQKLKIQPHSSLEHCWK
# Sequence of Cannabinoid receptor 1 (P21554 whole entry): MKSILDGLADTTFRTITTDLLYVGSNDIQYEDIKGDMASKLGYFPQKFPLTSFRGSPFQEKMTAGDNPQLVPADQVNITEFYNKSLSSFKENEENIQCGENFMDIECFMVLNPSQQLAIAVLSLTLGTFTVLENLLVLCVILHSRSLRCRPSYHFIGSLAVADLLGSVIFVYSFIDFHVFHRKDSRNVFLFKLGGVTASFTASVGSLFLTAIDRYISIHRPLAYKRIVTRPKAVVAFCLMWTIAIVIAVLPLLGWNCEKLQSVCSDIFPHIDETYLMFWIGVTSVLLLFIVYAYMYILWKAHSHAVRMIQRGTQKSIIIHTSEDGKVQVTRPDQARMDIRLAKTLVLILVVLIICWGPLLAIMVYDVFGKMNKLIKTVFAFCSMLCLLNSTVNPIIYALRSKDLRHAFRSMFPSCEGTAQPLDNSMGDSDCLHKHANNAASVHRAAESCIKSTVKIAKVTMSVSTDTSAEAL
# Sequence of Beta-2 adrenergic receptor (P07550 whole entry): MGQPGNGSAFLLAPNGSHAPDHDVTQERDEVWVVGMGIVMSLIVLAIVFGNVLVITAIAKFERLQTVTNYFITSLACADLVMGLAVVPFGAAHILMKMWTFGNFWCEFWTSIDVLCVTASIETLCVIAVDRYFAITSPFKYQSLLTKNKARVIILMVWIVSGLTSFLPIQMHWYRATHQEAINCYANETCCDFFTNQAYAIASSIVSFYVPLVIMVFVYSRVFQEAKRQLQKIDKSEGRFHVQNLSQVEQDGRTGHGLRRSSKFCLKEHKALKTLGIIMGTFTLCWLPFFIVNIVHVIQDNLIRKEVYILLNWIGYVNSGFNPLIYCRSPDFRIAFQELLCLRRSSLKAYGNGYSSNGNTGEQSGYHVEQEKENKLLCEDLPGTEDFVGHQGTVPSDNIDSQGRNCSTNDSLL
# T5 sequence (P23219 whole entry): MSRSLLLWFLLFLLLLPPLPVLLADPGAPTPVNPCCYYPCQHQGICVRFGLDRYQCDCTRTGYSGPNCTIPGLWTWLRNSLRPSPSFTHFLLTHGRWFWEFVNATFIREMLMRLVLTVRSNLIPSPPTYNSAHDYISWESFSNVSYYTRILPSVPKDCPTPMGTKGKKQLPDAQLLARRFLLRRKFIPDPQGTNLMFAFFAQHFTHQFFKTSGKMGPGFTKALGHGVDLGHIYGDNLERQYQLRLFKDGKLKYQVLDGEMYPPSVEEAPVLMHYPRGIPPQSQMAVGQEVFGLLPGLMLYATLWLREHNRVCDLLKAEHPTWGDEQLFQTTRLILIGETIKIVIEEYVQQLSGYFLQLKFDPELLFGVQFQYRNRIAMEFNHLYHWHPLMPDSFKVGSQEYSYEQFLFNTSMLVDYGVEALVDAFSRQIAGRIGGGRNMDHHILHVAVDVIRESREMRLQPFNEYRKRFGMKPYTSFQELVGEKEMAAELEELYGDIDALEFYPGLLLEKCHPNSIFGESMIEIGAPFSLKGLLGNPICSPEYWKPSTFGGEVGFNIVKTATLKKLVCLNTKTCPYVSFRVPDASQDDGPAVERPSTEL
# Sequence of Melanocortin receptor 4 (P32245 whole entry): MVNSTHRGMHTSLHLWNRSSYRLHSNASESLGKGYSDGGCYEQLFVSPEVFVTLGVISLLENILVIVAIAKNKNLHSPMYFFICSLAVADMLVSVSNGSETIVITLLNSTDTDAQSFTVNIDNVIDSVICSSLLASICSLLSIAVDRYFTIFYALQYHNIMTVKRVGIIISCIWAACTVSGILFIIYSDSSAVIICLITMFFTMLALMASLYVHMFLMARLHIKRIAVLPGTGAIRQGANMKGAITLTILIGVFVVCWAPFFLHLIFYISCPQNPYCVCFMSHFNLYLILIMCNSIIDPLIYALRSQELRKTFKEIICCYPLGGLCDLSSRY
# T2 sequence (P21728 whole entry): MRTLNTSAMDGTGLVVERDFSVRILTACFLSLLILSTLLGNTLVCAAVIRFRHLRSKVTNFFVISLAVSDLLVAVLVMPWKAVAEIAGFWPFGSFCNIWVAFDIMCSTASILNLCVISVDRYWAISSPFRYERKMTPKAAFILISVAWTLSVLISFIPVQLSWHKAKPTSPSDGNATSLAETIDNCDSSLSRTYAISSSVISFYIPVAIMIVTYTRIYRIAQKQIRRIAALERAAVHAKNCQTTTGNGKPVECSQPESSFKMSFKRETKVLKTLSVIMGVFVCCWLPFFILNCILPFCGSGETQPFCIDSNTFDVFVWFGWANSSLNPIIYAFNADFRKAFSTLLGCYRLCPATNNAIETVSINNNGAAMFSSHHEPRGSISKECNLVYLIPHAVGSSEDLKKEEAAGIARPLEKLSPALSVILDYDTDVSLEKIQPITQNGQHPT
# Sequence of Sodium-dependent dopamine transporter (Q01959 whole entry): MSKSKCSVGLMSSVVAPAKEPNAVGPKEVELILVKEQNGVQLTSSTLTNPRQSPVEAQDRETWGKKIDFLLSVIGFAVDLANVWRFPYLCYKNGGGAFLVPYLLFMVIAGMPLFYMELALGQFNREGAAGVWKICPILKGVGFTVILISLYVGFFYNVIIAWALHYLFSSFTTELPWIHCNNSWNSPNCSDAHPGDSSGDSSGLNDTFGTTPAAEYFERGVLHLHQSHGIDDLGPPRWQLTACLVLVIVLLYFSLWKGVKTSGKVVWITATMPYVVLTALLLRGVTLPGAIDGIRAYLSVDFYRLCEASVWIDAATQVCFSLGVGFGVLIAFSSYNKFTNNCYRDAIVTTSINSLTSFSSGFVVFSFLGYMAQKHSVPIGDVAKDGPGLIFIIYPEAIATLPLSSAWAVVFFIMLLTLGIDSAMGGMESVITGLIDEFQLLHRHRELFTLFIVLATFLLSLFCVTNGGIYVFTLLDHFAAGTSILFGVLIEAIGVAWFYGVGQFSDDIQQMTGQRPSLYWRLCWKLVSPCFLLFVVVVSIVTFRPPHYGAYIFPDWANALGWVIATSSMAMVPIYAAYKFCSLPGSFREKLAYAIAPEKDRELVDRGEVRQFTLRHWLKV
# Sequence of Sodium-dependent noradrenaline transporter (P23975 whole entry): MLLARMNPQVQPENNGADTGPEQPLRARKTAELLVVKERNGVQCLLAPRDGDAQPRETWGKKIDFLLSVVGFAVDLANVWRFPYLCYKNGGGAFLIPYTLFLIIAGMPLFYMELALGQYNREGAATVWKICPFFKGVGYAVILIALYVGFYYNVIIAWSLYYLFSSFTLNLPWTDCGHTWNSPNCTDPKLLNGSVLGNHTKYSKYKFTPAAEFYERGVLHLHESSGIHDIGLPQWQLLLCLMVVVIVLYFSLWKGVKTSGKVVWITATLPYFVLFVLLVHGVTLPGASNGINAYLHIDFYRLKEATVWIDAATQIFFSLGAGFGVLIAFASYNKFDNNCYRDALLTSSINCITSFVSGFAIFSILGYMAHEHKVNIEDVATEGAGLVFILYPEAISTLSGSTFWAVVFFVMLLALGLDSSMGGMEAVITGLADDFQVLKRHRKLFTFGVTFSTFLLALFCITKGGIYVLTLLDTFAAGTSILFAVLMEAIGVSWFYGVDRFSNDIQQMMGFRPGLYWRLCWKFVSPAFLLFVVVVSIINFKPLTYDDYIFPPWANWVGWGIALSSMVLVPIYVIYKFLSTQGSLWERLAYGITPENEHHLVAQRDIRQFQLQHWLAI
# Sequence of Histamine H1 receptor (P35367 whole entry): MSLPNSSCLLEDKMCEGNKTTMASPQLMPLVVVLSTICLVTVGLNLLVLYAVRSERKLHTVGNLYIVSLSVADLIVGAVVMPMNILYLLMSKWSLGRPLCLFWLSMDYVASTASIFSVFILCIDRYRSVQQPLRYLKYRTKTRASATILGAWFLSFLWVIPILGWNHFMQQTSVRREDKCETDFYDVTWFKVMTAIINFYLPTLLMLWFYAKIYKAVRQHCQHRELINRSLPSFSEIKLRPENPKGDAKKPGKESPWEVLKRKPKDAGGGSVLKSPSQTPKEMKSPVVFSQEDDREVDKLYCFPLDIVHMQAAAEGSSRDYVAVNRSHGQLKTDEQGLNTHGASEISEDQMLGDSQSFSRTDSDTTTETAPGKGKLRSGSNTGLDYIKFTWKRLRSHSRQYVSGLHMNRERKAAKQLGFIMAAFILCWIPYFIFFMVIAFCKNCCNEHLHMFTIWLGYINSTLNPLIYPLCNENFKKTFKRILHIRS
SMILES,AC50 [1] [µM],AC50 [2] [µM],AC50 (Cannabinoid receptor 1) [µM],AC50 (D(1A) dopamine receptor [3]) [µM],AC50 (D(1A) dopamine receptor [4]) [µM],AC50 (Histamine H3 receptor [5]) [µM],AC50 [6] [µM],AC50 [7] [µM],AC50 (Melanocortin receptor 4) [µM],AC50 [8] [µM],AC50 [9] [µM],AC50 [10] [µM],AC50 [11] [µM],AC50 [12] [µM],AC50 [13] [µM],AC50 (Histamine H3 receptor [14]) [µM],AC50 [15] [µM],AC50 (Histamine H1 receptor) [µM],AC50 [16] [µM]
CN1CCN(C2=Nc3ccccc3Oc3ccc(Cl)cc32)CC1 [LOXAPINE],> 30,8.8,> 30,> 10,0.0245,> 30,> 10,3.95,> 30,> 30,> 30,> 30,0.482,23.3,0.44,> 10,,,
CC12CC3CC(C)(C1)CC(N)(C3)C2 [MEMANTINE],> 30,> 10,> 30,> 10,,,> 10,,> 30,,,,,,> 30,> 10,> 10,> 10,
CCC(=O)O[C@]1(C(=O)SCF)[C@H](C)C[C@H]2[C@@H]3C[C@H](F)C4=CC(=O)C=C[C@]4(C)[C@@]3(F)[C@@H](O)C[C@@]21C [FLUTICASONE PROPIONATE],> 30,> 30,> 30,> 30,> 30,> 30,> 10,> 30,> 30,> 30,> 30,> 30,> 30,> 30,> 30,> 30,> 30,> 30,> 30

# Source: ChEMBL document CHEMBL5291721, “A preclinical secondary pharmacology resource illuminates target-adverse drug reaction associations of marketed drugs” (Nat Commun, 2023)
